# Measurements from publication PMC9245717, “Phylogenomic and functional characterization of an evolutionary conserved cytochrome P450-based insecticide detoxification mechanism in bees” (Proceedings of the National Academy of Sciences of the …, 2022).
# How the values were obtained:
# [1] = system: T1, Melitta hemorrhoidalis CYP9FU3; assay: fluorescent probe saturation kinetics, Michaelis-Menten; set-up: species or system Melitta haemorrhoidalis; conditions: NADPH; recombinant microsomes
# T1 construct: recombinant, baculovirus, High-5 (Trichoplusia ni) cell microsomes; coexpressed with A. mellifera CPR (XP_006569769.1)
# Andrena vaga CYP9FT2 = system: T2, Andrena vaga CYP9FT2; assay: as above; format: biochemical; conditions: NADPH; recombinant microsomes
# T2 construct: recombinant, baculovirus, High-5 (Trichoplusia ni) cell microsomes; coexpressed with A. mellifera CPR (XP_006569769.1)
# [2] = system: T3, Xylocopa violacea CYP9Q18; assay: as above; format: biochemical; conditions: NADPH; recombinant microsomes
# T3 construct: recombinant, baculovirus, High-5 (Trichoplusia ni) cell microsomes; coexpressed with A. mellifera CPR (XP_006569769.1)
# [3] = system: T4, Colletes cunicularius CYP9FZ2; assay: as above; format: biochemical; conditions: NADPH; recombinant microsomes
# T4 construct: recombinant, baculovirus, High-5 (Trichoplusia ni) cell microsomes; coexpressed with A. mellifera CPR (XP_006569769.1)
# A. mellifera CYP9Q3 = target: T5, A. mellifera CYP9Q3 (Apis mellifera, UniProt A0A7M7LMV1); assay: UPLC-MS/MS depletion and metabolite formation assay; format: biochemical; conditions: 10 µM substrate; NADPH regeneration system; 2 h, 30 °C; recombinant microsomes
# T5 construct: gene LOC408453; recombinant, baculovirus, High-5 (Trichoplusia ni) cell microsomes; coexpressed with A. mellifera CPR (XP_006569769.1)
# T5 sequence (A0A7M7LMV1 1-517): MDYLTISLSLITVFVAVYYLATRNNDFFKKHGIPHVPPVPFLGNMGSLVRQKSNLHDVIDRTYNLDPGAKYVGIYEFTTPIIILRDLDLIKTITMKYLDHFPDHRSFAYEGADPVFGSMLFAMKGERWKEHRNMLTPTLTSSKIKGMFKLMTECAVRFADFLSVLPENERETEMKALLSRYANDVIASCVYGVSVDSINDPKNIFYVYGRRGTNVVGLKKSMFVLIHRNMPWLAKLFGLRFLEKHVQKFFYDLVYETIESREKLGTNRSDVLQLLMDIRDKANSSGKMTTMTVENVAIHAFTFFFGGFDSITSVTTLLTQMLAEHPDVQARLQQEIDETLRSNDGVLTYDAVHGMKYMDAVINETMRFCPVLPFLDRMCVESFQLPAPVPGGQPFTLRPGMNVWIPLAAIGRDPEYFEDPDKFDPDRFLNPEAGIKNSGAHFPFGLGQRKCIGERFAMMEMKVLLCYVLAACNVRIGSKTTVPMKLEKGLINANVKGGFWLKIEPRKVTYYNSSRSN
Structure (SMILES),Km [1],Km (Andrena vaga CYP9FT2),Km [2],Km [3],UPLC-MS/MS depletion and metabolite formation assay (A. mellifera CYP9Q3)
"O=c1cc(C(F)(F)F)c2ccc(OCOCc3ccccc3)cc2o1 [BOMFC, 7-benzyloxymethoxy-4-trifluoromethyl coumarin]",8.16 µM,7.43 µM,15.2 µM,14.7 µM,
O=C1C=C(N(Cc2ccc(Cl)nc2)CC(F)F)CO1 [flupyradifurone],,,,,FPF metabolite formation was remarkably uniform among all the P450s tested
